The record followed here is patent US12285455B2, “Controlled-release and stratified cyclodextrin inclusion complex vehicles” (CZAP RESEARCH AND DEVELOPMENT, LLC., priority 2016, dated 2025).

The test system of this test is myelofibrosis. The experiment in a line: treatment of myelofibrosis, case history. Conditions: following initiation of treatment; approximately every 10 days before treatment. In kind it is in vivo, human. Here is the method:
This example illustrates the treatment of symptoms associated with myelofibrosis. A patient suffering from myelofibrosis was treated with a quercetin CD formulation. The formulation was prepared from a powder of quercetin (Glanbia Nutritionals) formed as an inclusion complex with gamma cyclodextrin, dried and mixed with amylase powder. At the initiation of quercetin CD treatment, the patient was in need of blood transfusions approximately every 10 days. Following initiation of the quercetin CD treatment, the patient was able to go 20 days between transfusions.

In the case of `O=c1c(O)c(-c2ccc(O)c(O)c2)oc2cc(O)cc(O)c12` [quercetin], the “interval between blood transfusions” value is on record as “did not get this result”.
